Entries after “also recorded” stand apart in the source; their conditions may differ. Where a name gives a salt, the structure may show the parent alone.
Columns and labels:
[1] = tested on: scopolamine impaired rats; test: Water maze hidden platform task in scopolamine impaired rats; type: in vivo, Long Evans rats; conditions: for Hidden platform task performance (latency, swim path length) vs saline controls; reversal of scopolamine effect: donepezil 0.75 mg/kg p.o. daily with scopolamine 0.1 mg/kg i.p., test days 3 and 4, hydrochloride
Method: (§1) Male Long-Evans rats (3 months of age) were administered either saline, donepezil (0.75 mg/kg), or PP-100 (3.0 mg/kg or 40.0 mg/kg) by oral gavage for 10 days prior to (and during the 5 days of) testing in a water maze task. The compounds were evaluated for their ability to reverse the amnestic effects of scopolamine (0.1 mg/kg) in this task.
The animals were randomly assigned to one of 5 groups (n=10/group) and administered one daily dose of either of two doses of the choline derivative PP-100 (3 or 40 mg/kg), donepezil HCL (0.75 mg/kg), or vehicle (0.9% saline), via oral gavage (p.o.) beginning ten days prior to initiation of the water maze task. Daily dosing continued through the initial day of visible platform testing and the subsequent five days of water maze testing (i.e., on hidden platform test days as well as probe trial days). On both the single day of pre-testing (Visible Platform Test) as well as on each day of watermaze testing, thirty minutes prior to the first trial, 0.1 mg/kg of scopolamine hydrobromide was administered i.p. to four of the five groups (i.e., excluding the saline-saline group). Fifteen minutes after the scopolamine injection (or vehicle) each group was dosed with one of the test articles or vehicle (see Table 1 for an overview of the testing protocol). Test articles were prepared according to the supplied instructions, and aliquots of the solutions were stored (at −20° C.). Test agents were freshly thawed at the time of use.
In order to test and compare the effects of PP-100 on both acquisition and recall of spatial memories, the water maze hidden platform task was utilized. […] Scopolamine is known to impair performance in the water maze task, and blockage of scopolamine effects is known to reduce impairment in the water maze (e.g., Terry et al., Drug Dev. Res., 47:97 (1999).
The water maze experiment was performed in a circular pool (diameter=180 cm, height=76 cm) made of black plastic. The pool was filled with water to a depth of 35 cm and the water was maintained at 25.0±1.0° C. The pool was located in a large room with a number of extra-maze visual cues including geometric images (squares, triangles, circles etc.) hung on the wall, diffuse lighting, and black curtains used to hide the experimenter (visually) and the resting test subjects. Swimming activity of each rat was monitored via a television camera mounted overhead, which relayed information including latency to find the platform, total distance traveled, time and distance spent in each quadrant etc. to a video tracking system (Actimetrics, Evanston, Ill.).
For the water maze test itself, the escape platform was submerged. […]

[2] = tested on: scopolamine impaired rats; test: Water maze visible platform task (pre-test) in scopolamine impaired rats; type: in vivo, Long Evans rats; conditions: scopolamine 0.1 mg/kg i.p.; hydrobromide
Method: as §1
The animals were randomly assigned to one of 5 groups (n=10/group) and administered one daily dose of either of two doses of the choline derivative PP-100 (3 or 40 mg/kg), donepezil HCL (0.75 mg/kg), or vehicle (0.9% saline), via oral gavage (p.o.) beginning ten days prior to initiation of the water maze task. Daily dosing continued through the initial day of visible platform testing and the subsequent five days of water maze testing (i.e., on hidden platform test days as well as probe trial days). […]
The water maze experiment was performed in a circular pool (diameter=180 cm, height=76 cm) made of black plastic. […] Swimming activity of each rat was monitored via a television camera mounted overhead, which relayed information including latency to find the platform, total distance traveled, time and distance spent in each quadrant etc. to a video tracking system (Actimetrics, Evanston, Ill.). […]

For `COc1cc2c(cc1OC)C(=O)C(CC1CCN(Cc3ccccc3)CC1)C2` (racemic) [donepezil, (±)-2-[(1-benzyl-4-piperidyl)methyl]-5,6-dimethoxy-1-indanone hydrochloride], the “Hidden platform task performance (latency, swim path length) vs saline controls; reversal of scopolamine effect” value [1] was “did not differ (statistically) from saline controls”, the “Hidden platform task performance (latency, swim path length) vs saline controls; reversal of scopolamine effect” value ([1]; listed as Donepezil) was “appeared to at least partially reverse the effects of scopolamine” and the “Hidden platform task performance vs saline controls” value ([1]; with scopolamine 0.1 mg/kg i.p., donepezil 0.75 mg/kg or PP-100 3 or 40 mg/kg p.o., test days 1 and 2) was “generally performed less efficiently than saline controls”.

In the case of `CN1[C@@H]2C[C@@H](OC(=O)[C@H](CO)c3ccccc3)C[C@H]1[C@@H]1O[C@@H]12` [scopolamine, scopolamine hydrobromide], the “Effect on ability to locate a highly visible platform” value [2] was “tended to produce impairment; also recorded: led to some impairment” and the “Effect on learning in the hidden platform task (latency, swim distance)” value ([1]; scopolamine 0.1 mg/kg i.p. 30 minutes before first trial) was “impaired learning”.

Reference: US7803842B2, “Choline esters useful for the treatment of cognitive dysfunctions and enhancement of memory, learning and cognition” (priority 2004, dated 2010)
